For three compounds, IC50 results are on record in ChEMBL document CHEMBL1142618, “Mycalamide D, a new cytotoxic amide from the New Zealand marine sponge Mycale species” (J Nat Prod, 2000).

Common to all, as to assay type: functional, cell-based
One assay has as its system LLC-PK1. The assay can be described thus: Cytotoxicity against pig LLC-PK1 cells after 96 hrs by MTT assay. The note with it: Sus scrofa, LLC-PK1, 96 h.
Assay [1] in a line: Cytotoxicity against human H441 cells after 96 hrs by MTT assay. The note with it: NCI-H441, 96 h.
The test system of a further assay is SH-SY5Y. The assay can be described thus: Cytotoxicity against human SH-SY5Y cells after 96 hrs by MTT assay.
A further assay deals with P388. The assay can be described thus: Cytotoxicity against mouse P388 cells after 96 hrs by MTT assay. To be noted: P388, 96 h.

In the case of `C=C1C[C@](OC)([C@H](O)C(=O)N[C@H]2OCO[C@H]3[C@@H]2O[C@H](C[C@H](O)CO)C(C)(C)[C@@H]3OC)O[C@H](C)[C@@H]1C` [MYCALAMIDE A], the half-inhibitory concentration (IC50) with LLC-PK1 was 0.65 nM; in assay [1], 0.46 nM; in the assay on SH-SY5Y it was 0.52 nM; in the assay on P388, 5.2 nM.
On the same counts, the results for `C=C1C[C@](OC)([C@H](O)C(=O)N[C@H]2OCO[C@H]3[C@@H]2O[C@H](C[C@@H](CO)OC)C(C)(C)[C@@H]3OC)O[C@H](C)[C@@H]1C` [MYCALAMIDE B] are 19.4 nM, 9.3 nM, 6.42 nM and 1.3 nM.
As to `C=C1C[C@](OC)([C@H](O)C(=O)N[C@H]2OCO[C@H]3[C@@H]2O[C@H](C[C@H](O)CO)C(C)(C)[C@@H]3O)O[C@H](C)[C@@H]1C` [MYCALAMIDE D], inhibition in the assay with P388 was half-maximal at 65.5 nM (IC50).
